Values joined by “and” are separate entries in the source; they are usually repeats but may differ in a detail not shown here. Identical values can stand only once.
Experiments:
Format in all cases: cell-based
P-388 = assay: Murine P388 lymphocytic leukemia cell growth inhibition; details: Mouse leukemia cell P-388
Text: (§1) The extraordinary inhibition of cell growth shown by the tetrapeptide 6a-k against six major types of human cancer and against the murine P388 lymphocytic leukemia cell line has been presented in Table 1-2, below.

OVCAR-3 = assay: NCI human tumor cell line screen, ovarian OVCAR-3; details: for GI-50 / TGI: Human cancer cell; for LC-50: Human cancer cells
Text: (§2) Current research in the control of cancer in the United States is coordinated by the National Cancer Institute (NCI). To determine whether a substance has anti-cancer properties, the NCI has established a systematic protocol. […] The protocol, and the established statistical means for analyzing the results obtained by the standardized testing are fully described in the literature. See: Body, Dr. Michael R., Principles & Practice of Oncology, PPO Updates, Volume 3, Number 10, October 1989, for an in depth description of the testing protocol; and Paull, K. D., "Display and Analysis of Patterns of Differential Activity of Drugs Against Human Tumor Cell Lines; Development of Mean Graph and COMPARE Algorithm", Journal of the National Cancer Institute Reports, Vol. 81, No. 14, Page 1088, Jul. 14, 1989 for a description of the methods of statistical analysis. Both of these references are incorporated herein by this reference thereto.

SF-295 = assay: NCI human tumor cell line screen, CNS SF-295; details: for GI-50 / TGI: Human cancer cell; for LC-50: Human cancer cells
Text: (§3) Current research in the control of cancer in the United States is coordinated by the National Cancer Institute (NCI). To determine whether a substance has anti-cancer properties, the NCI has established a systematic protocol. This protocol, which involves the testing of a substance against a standard cell line panel containing 60 human tumor cell lines, has been verified and has been accepted in scientific circles. The protocol, and the established statistical means for analyzing the results obtained by the standardized testing are fully described in the literature. See: Body, Dr. Michael R., Principles & Practice of Oncology, PPO Updates, Volume 3, Number 10, October 1989, for an in depth description of the testing protocol; and Paull, K. D., "Display and Analysis of Patterns of Differential Activity of Drugs Against Human Tumor Cell Lines; Development of Mean Graph and COMPARE Algorithm", Journal of the National Cancer Institute Reports, Vol. 81, No. 14, Page 1088, Jul. 14, 1989 for a description of the methods of statistical analysis. Both of these references are incorporated herein by this reference thereto.
as §1

A498 = assay: NCI human tumor cell line screen, renal A498; details: for GI-50 / TGI: Human cancer cell; for LC-50: Human cancer cells
Text: as §2

NCI-460 = assay: NCI human tumor cell line screen, Lung-NSC NCI-460; details: for GI-50 / TGI: Human cancer cell; for LC-50: Human cancer cells
Text: as §2

KM20L2 = assay: NCI human tumor cell line screen, colon KM20L2; details: for GI-50 / TGI: Human cancer cell; for LC-50: Human cancer cells
Text: as §2

SK-MEL-3 = assay: NCI human tumor cell line screen, melanoma SK-MEL-3; details: for GI-50 / TGI: Human cancer cell; for LC-50: Human cancer cells
Text: as §3, §1

Row | Substance | ED-50 (P-388) | GI-50 (OVCAR-3) | TGI (OVCAR-3) | LC-50 (OVCAR-3) | GI-50 (SF-295) | TGI (SF-295) | LC-50 (SF-295) | GI-50 (A498) | TGI (A498) | LC-50 (A498) | GI-50 (NCI-460) | TGI (NCI-460) | LC-50 (NCI-460) | GI-50 (KM20L2) | TGI (KM20L2) | LC-50 (KM20L2) | GI-50 (SK-MEL-3) | TGI (SK-MEL-3) | LC-50 (SK-MEL-3)
1 | [2S-[1[1R*(R*),2S*],2R*[1S*,2S*, 3(1R*, 2S*)]]]-N,N-dimethyl-L-valyl-N-[2-methoxy-4-[2-[1-methoxy-2- methyl-3-oxo-3-[[1-phenyl-1-hydroxy-2-propyl]amino]propyl]-1-pyrrolidinyl- 1-(methylpropyl)-4-oxobutyl]-N-methyl-L-valine amide [Peptide 6i] | 0.000503 µg/mL | 0.000021 µg/mL | 0.042 ng/mL | 0.000088 µg/mL | 0.000016 µg/mL | 0.24 ng/mL | > 0.01 µg/mL | 0.0000027 µg/mL | 0.0086 ng/mL | 0.00029 µg/mL | 0.000025 µg/mL | > 10 ng/mL | > 0.01 µg/mL | 0.00011 µg/mL | 7 ng/mL | > 0.01 µg/mL | 0.00058 µg/mL | > 10 ng/mL | > 0.01 µg/mL
2 | [2S-[1[1R*(R*),2S],2R*[1S*,2S*]]]-N,N-dimethyl-L-valyl-N-[2-methoxy-4-[2-[1-methoxy-2-methyl-3-oxo-3-[[2-(3,4-dimethoxy-phenyl)-ethyl]amino]propyl]-1- pyrrolidinyl-1-(methylpropyl)-4-oxobutyl]-N-methyl-L-valineamide [Peptide 6a] | 0.0035 µg/mL | 0.000007 µg/mL | 0.061 ng/mL | > 0.0001 µg/mL | 0.000029 µg/mL | 0.083 ng/mL | > 0.0001 µg/mL | 0.000016 µg/mL | > 0.1 ng/mL | > 0.0001 µg/mL | 0.000031 µg/mL | 0.094 ng/mL | > 0.0001 µg/mL | 0.000025 µg/mL | 0.061 ng/mL | > 0.0001 µg/mL | 0.000018 µg/mL | 0.058 ng/mL | > 0.0001 µg/mL
3 | [2S-[1[1R*(R*),2S*],2R*[1S*,2S*]]]-N,N-dimethyl-L-valyl-N-[2-methoxy-4-[2- [1-methoxy-2-methyl-3-oxo-3-[[2-(3-chlor-phenyl)-ethyl]amino]propyl]-1-pyrrolidinyl-1-(methylpropyl)-4-oxo butyl]-N-methyl-L-valineamide [Peptide 6f] | 0.00225 µg/mL | < 0.000001 µg/mL | < 0.001 ng/mL | 0.00076 µg/mL | 0.000028 µg/mL | > 10 ng/mL | > 0.01 µg/mL | < 0.000001 µg/mL | 1.7 ng/mL | > 0.01 µg/mL | < 0.000001 µg/mL | 0.1 ng/mL | > 0.01 µg/mL | 0.0000007 µg/mL | 1.7 ng/mL | > 0.01 µg/mL | < 0.000001 µg/mL | > 10 ng/mL | > 0.01 µg/mL
4 | [2S-[1[1R*(R*),2S*],2R*[1S*,2S*, 3(1S*, 2R*)]]]-N,N-dimethyl-L-valyl-N-[2-methoxy-4-[2-[1-methoxy-2-methyl-3-oxo-3-[[1-phenyl-1-hydroxy-2-propyl]amino]propyl]-1-pyrrolidinyl-1-(methylpropyl)-4-oxobutyl]-N-methyl-L-valine amide [Peptide 6k] | 0.000434 µg/mL | 0.00017 µg/mL | 0.53 ng/mL | > 0.01 µg/mL | 0.0006 µg/mL | > 10 ng/mL | > 0.01 µg/mL | 0.00075 µg/mL | > 10 ng/mL | > 0.01 µg/mL | 0.0003 µg/mL | 1 ng/mL | > 0.01 µg/mL | 0.00029 µg/mL | 1.3 ng/mL | > 0.01 µg/mL | 0.00058 µg/mL | > 10 ng/mL | > 0.01 µg/mL
5 | [2S-[1[1R*(R*),2S*],2R*[1S*,2S*]]]-N,N-dimethyl-L-valyl-N-[2-methoxy-4-[2-[1-methoxy-2-methyl-3-oxo-3-[[2-(4-chlor-phenyl)-ethyl]amino]propyl]-1-pyrrolidinyl-1-(methylpropyl)-4-oxo butyl]-N-methyl-L-valineamide [Peptide 6c] | 0.00553 µg/mL | < 0.000001 µg/mL | < 0.001 ng/mL | > 0.01 µg/mL | 0.000010 µg/mL | 1.9 ng/mL | > 0.01 µg/mL | 0.00062 µg/mL | > 10 ng/mL | > 0.01 µg/mL | < 0.000001 µg/mL | 1.1 ng/mL | > 0.01 µg/mL | < 0.000001 µg/mL | 1.1 ng/mL | > 0.01 µg/mL | < 0.000001 µg/mL | > 10 ng/mL | > 0.01 µg/mL
6 | [2S-[1[1R*(R*),2S*],2R*[1S*,2S*]]]-N,N-dimethyl-L-valyl-N-[2-methoxy-4-[2-[1-methoxy-2-methyl-3-oxo-3-[[2-(2-chlor-phenyl)-ethyl]amino]propyl]-1-pyrrolidinyl-1-(methylpropyl)-4-oxo butyl]-N-methyl-L-valineamide [Peptide 6g] | 0.000289 µg/mL | < 0.000001 µg/mL | < 0.001 ng/mL | > 0.01 µg/mL | < 0.000001 µg/mL | > 10 ng/mL | > 0.01 µg/mL | < 0.000001 µg/mL | 2 ng/mL | > 0.01 µg/mL | < 0.000001 µg/mL | 0.11 ng/mL | > 0.01 µg/mL | < 0.000001 µg/mL | 0.38 ng/mL | > 0.01 µg/mL | < 0.000001 µg/mL | > 10 ng/mL | > 0.01 µg/mL
7 | [2S-[1[1R*(R*),2S*],2R*[1S*,2S*,3(1S*, 2S*)]]]-N,N-dimethyl-L-valyl-N-[2-methoxy-4-[2-[1-methoxy-2- methyl-3-oxo-3-[[1-phenyl-1-hydroxy-2-propyl]methylamino]propyl]- 1-pyrrolidinyl-1-(methylpropyl)-4-oxobutyl]-N-methyl-L-valineamide valineamide [Peptide 6h] | – | – | – | > 0.01 µg/mL | 0.00031 µg/mL and 0.00034 µg/mL | > 10 ng/mL | > 0.01 µg/mL | – | > 10 ng/mL and 9.7 ng/mL | > 0.01 µg/mL | 0.00006 µg/mL | 0.11 ng/mL | > 0.01 µg/mL | – | 0.52 ng/mL | > 0.01 µg/mL | – | > 10 ng/mL | > 0.01 µg/mL
